Measurements: PMC3605511, “Tumor P-Glycoprotein Correlates with Efficacy of PF-3758309 in in vitro and in vivo Models of Colorectal Cancer” (Frontiers in Pharmacology, 2013)

How the values were obtained:
[1] = test system: CRC, breast, and non-small cell lung cancer cell lines; experiment: Proliferation by resazurin, expanded panel of 71 cell lines; assay type: cell-based; details: Homo sapiens, printed over a group of bars, cell lines covered not named
Method: (§1) Cytotoxic/proliferation effects were determined using the sulforhodamine B (SRB) assay (Skehan et al., [1990]) or by resazurin. Briefly, cells in logarithmic growth phase were transferred to 96 well flat bottom plates with lids. One-hundred microliter cell suspensions containing 1500–5000 viable cells were plated into each well and incubated overnight prior to exposure with increasing concentrations of PF-309 for 3–5 days, dependent upon cell type. Media was removed and cells were fixed with cold 10% trichloroacetic acid for 30 min at 4°C. Cells were then washed with water and stained with 0.4% SRB (Fisher Sci., Pittsburgh, PA, USA) for 30 min at room temperature, washed again with 1% acetic acid, followed by stain solubilization with 10 mM tris at room temperature. The plate was then read on a plate reader (Biotek Synergy 2, Winooski, VT, USA) set at an absorbance wavelength of 565 nm. Cell proliferation curves were derived from the raw absorbance (OD) data.
(§2) Since PF-309 appeared to be a strong P-gp and BCRP substrates, we sought to evaluate if the transporters influenced sensitivity in vitro. We evaluated the sensitivity of CRC cell lines to PF-309 treatment in a panel of 27 lines. Cells were exposed to PF-309 at a range of concentrations for 72 h and cell content measured by SRB assay (see Pitts et al., [2013]). […]

CUCRC047 CRC PDTX model = experiment: Patient derived tumor xenograft efficacy, CUCRC047; assay type: in vivo, mice; details: 25 mg/kg orally twice daily, 22–56 days, end of study tumor volumes
Method: (§3) For patient tumor xenografts, surgical specimens of patients undergoing either removal of a primary or metastatic tumor at the University of Colorado Hospital are implanted subcutaneously into five mice for each patient with a 10-G trochar. After a subsequent growth and passage in mice, tumors are excised, and expanded into cohorts for treatment (n = 6–15 per group). Mice were treated with PF-309 or vehicle (0.5% methylcellulose) for 22–56 days (until control tumor volume reach ∼1500 mm^3) twice daily (BID) by oral gavage (PO). Monitoring of mice and measurements of tumors were conducted as described above. % Growth Inhibition= (average control volume−average treated volume)/average control volume×100% In addition to the cell line xenografts, we also treated 12 different patient derived tumor xenograft (PDTX) CRC models with PF-309 (Figure 6). We were unable to assess how ABCB1 gene expression correlated with efficacy in these models. The PDTX models are propagated in vivo, are not immortalized, and are not grown in in vitro culture. […] Tumor and plasma sample pairs were collected from animals at the end of study for eight tumor models (three cell line xenografts and five PDTX models) and concentrations of PF-309 were measured. […]

[2] = MDCKII-LE permeability assay; assay type: in vitro ADME; details: dog, MDCK; MDCKII-LE cells, mean of two replicates
Method: (§4) Permeability and transporter substrate assays were performed as previously published (Feng et al., [2008]; Callegari et al., [2011]; Di et al., [2011]). Permeability assays were conducted in MDCKII-LE cells, which were generated by isolation of a subpopulation of cells with low expression of endogenous P-gp (Feng et al., [2008]; Callegari et al., [2011]; Di et al., [2011]). The use of MDCKII-LE cells are used to measure the passive permeability of compounds in place of MDCK wild-type or Caco-2 cells since both MDCK wild-type and Caco-2 cells are known to have some level of endogenous transporter expression which can affect the permeability measurement. P-gp efflux was determined in MDR1-MDCK cells and BCRP efflux was measured in BCRP-MDCKII-LE cells.
(§5) MDCKII-LE, MDR1-MDCK, and BCRP-MDCKII-LE transwell assays were performed to determine the permeability and transporter efflux of PF-309 in vitro (Table 1). The permeability of PF-309 was determined to be 0.9 × 10^−6 cm/s in MDCKII-LE cells (mean of two replicates is presented). As previously described (Feng et al., [2008]), in MDCKII-LE cells a compound with a donor to receiver (A → B) flux of <5 × 10^−6 cm/s is classified as having low permeability. Compounds with A → B flux of 5–15 × 10^−6 cm/s are classified as moderately permeable and compounds >15 × 10^−6cm/s are considered to be highly permeable.

MDCKII-LE cells = experiment: MDCKII-LE permeability assay; assay type: in vitro ADME; details: MDCKII-LE; A → B <5 × 10^−6 cm/s low, 5–15 moderate, >15 high
Method: as §4, §5

[3] = End of study tumor and plasma concentrations (LC/MS/MS); assay type: in vivo; details: mice, trough (6–8 h)
SW1116 = experiment: Cell proliferation assay, SW1116; assay type: cell-based; details: Homo sapiens, SW 1116; SW1116, 72 h, SRB assay
Method: as §1, §2

CUCRC036 CRC PDTX model = experiment: Patient derived tumor xenograft efficacy, CUCRC036; assay type: in vivo, mice; details: 25 mg/kg orally twice daily, 22–56 days, end of study tumor volumes
Method: as §3

CUCRC026 CRC PDTX model = experiment: Patient derived tumor xenograft efficacy, CUCRC026; assay type: in vivo, mice; details: 25 mg/kg orally twice daily, 22–56 days, end of study tumor volumes
Method: as §3

T84 = experiment: Cell proliferation assay, T84; assay type: cell-based; details: Homo sapiens; T84, PF-309 alone, 72 h; 1 uM was the maximum concentration used
Method: as §1, §2

SW620 = experiment: Cell proliferation assay, SW620; assay type: cell-based; details: Homo sapiens, SW-620; SW620, 72 h, SRB assay
Method: as §1, §2

RKO = experiment: Cell proliferation assay, RKO; assay type: cell-based; details: Homo sapiens, 72 h, SRB assay
Method: as §1, §2

IC50 [1]: > 100 nM
Papp A→B [2]: 0.9 ×10⁻⁶ cm/s
permeability classification (MDCKII-LE cells): poorly permeable
total plasma concentrations at the trough [3]: 1 to 10 nM
IC50 (SW1116): > 1000 nM
IC50 (SW620): 5 ± 3.1 nM
SMILES: Cc1nc(Nc2n[nH]c3c2CN(C(=O)N[C@H](CN(C)C)c2ccccc2)C3(C)C)c2sccc2n1 [PF-309]
% Growth inhibition (CUCRC047 CRC PDTX model): −24%
% Growth inhibition (CUCRC036 CRC PDTX model): 35%
% Growth inhibition (CUCRC026 CRC PDTX model): 30%
IC50 (T84): > 1000 nM
IC50 (RKO): 3.6 ± 0.1 nM
